In article PMC9266004, “Potential Common Mechanisms of Cytotoxicity Induced by Amide Herbicides via TRPA1 Channel Activation” (International Journal of Environmental Research and Public …, 2022):
Read-outs that look alike come from different tables or passages of the source.

Key:
[1] = system: calcium influx in A549 cells; assay: Cellular calcium imaging (Fluo-4) in WT A549 cells; type: cell-based, human; details: for calcium influx compared with 0 μM AHs: A549 cells, 150, 300, 600, 1200 μM; for calcium influx with HC-030031 pre-treatment compared with AHs treatment alone: A549 cells, HC-030031 50 μM, AHs 150-1200 μM
Method: (§1) Wild-type (WT) and TRPA1-KO A549 cells were cultured in McCoy’s 5A Media and F-12K Nutrient Mixture containing 10% fetal bovine serum, respectively. WT/TRPA1-KO A549 cells (5 × 10^4 cells/mL) were seeded in 96-well (100 μL/well) and 6-well (2 mL/well) plates and incubated at 37 °C with 5% CO2 in a humidified incubator for 24 h. WT/TRPA1-KO A549 cells were treated with AHs gradient concentrations (0, 150, 300, 600, 1200 μM) prepared in methanol (1.2 M) for 24 h. […]
Working solution was prepared according to the instructions of the Fluo-4 Direct calcium assay kit and directly added to WT/TRPA1-KO A549 cells in 96-well plates, which were incubated for 0.5 h and kept away from light after removal from the incubator. Single channel fluorescein isothiocyanate (FITC) levels were measured using a confocal high-content imaging system (IXM-C S150069, Molecular Devices, San Jose, CA, USA).

TRPA1-KO A549 cells = assay: CCK-8 cell viability assay in TRPA1-KO A549 cells; type: cell-based, human; details: for IC50: Homo sapiens, TRPA1-KO A549 cells, 24 h treatment, CCK-8, read-out: IC50 values of AHs, TRPA1-KO A549 Cells; for viability of TRPA1-KO A549 cells compared with AHs-treated WT cells: KO of TRPA1, AHs 150, 300, 600 μM
Method: The hTRPA1 gene sequence (Gene ID: 8989) was obtained from the National Center for Biotechnology Information (NCBI) website (https://www.ncbi.nlm.nih.gov/gene/8989 accessed on 26 May 2022). Three gRNA sequences, namely, T1: 5′-[…]-[…], T16: 5′-[…]-3′, and T20: 5′-[…]-3′, were designed using the CRISPR online design tool (http://crispr.mit.edu/ accessed on 26 May 2022). Transfection of cells with gRNA-Cas9 was validated in test cells. Cell pool examination was performed using Sanger sequencing. Sequencing and tracer analysis were performed using the online tool TIDE (https://tide-calculator.nki.nl/ accessed on 26 May 2022) to investigate the cleavage efficiency of T1, T16, and T20. Cells from the cell pool were diluted in 96-well plates. Clones were observed under a microscope and wells containing single cell clones were labeled. Single cell clones were transferred to 24-well plates for expansion. Validation of knockout (KO) clones was performed via sequencing to confirm insertion and deletion on the genomes of KO clone candidates. Furthermore, mycoplasmas were detected for cloned cells with high KO using the Mycoplasma PCR Detection Kit.
Wild-type (WT) and TRPA1-KO A549 cells were cultured in McCoy’s 5A Media and F-12K Nutrient Mixture containing 10% fetal bovine serum, respectively. WT/TRPA1-KO A549 cells (5 × 10^4 cells/mL) were seeded in 96-well (100 μL/well) and 6-well (2 mL/well) plates and incubated at 37 °C with 5% CO2 in a humidified incubator for 24 h. WT/TRPA1-KO A549 cells were treated with AHs gradient concentrations (0, 150, 300, 600, 1200 μM) prepared in methanol (1.2 M) for 24 h. Additionally, WT/TRPA1-KO A549 cells were pre-treated with TRPA1 special inhibitor HC-030031 (100 μM) for 0.5 h and then treated with AHs gradient concentrations for 24 h.
(§2) To conduct the cell viability assay, the growth medium was removed from WT/TRPA1-KO A549 cells cultured in a 96-well plate. CCK-8 reagent was mixed with complete medium (1:9 volume ratio), and 100 µL of the CCK-8 reagent mixture was added to each well. The plate was incubated for 4 h and the absorbance was measured at 450 nm using a microplate reader (BNR05740; Molecular Devices, Sunnyvale, CA, USA). The average absorbance from each sextuplicate set of wells was calculated and the background control value was subtracted from each absorbance value. The percentage cell viability was determined using the following equation:cell viability (%) = [(As − Ab)/(Ac − Ab)] × 100% where As is the absorbance of the experimental well (containing medium, CCK-8 reagent, cells, and compound); Ac is the absorbance of the control well (containing medium, CCK-8 reagent, and cells); and Ab is the absorbance of the blank well (containing medium and CCK-8 reagent).

A549 cells = assay: CCK-8 cell viability assay in WT A549 cells; type: cell-based, human; details: for viability of A549 cells compared with 0 μM AHs: 150, 300, 600, 1200 μM, 24 h; for viability of A549 cells compared with 0 μM AHs / IC50: CCK-8; for viability with HC-030031 pre-treatment compared with AHs treatment alone: A549 cells, HC-030031 50 μM, AHs 150, 300, 600 μM
Method: as §1, §2

zebrafish embryos = details: cited from earlier work
[2] = Homo sapiens, WT A549 cells, 24 h treatment, read-out: IC50 values of AHs, A549 Cells
[3] = WT A549 cells pre-treated with HC-030031 50 μM, then AHs 24 h, read-out: IC50 values of AHs, A549 Cells + HC-030031 50 μM

SMILES	calcium influx compared with 0 μM AHs [1]	calcium influx with HC-030031 pre-treatment compared with AHs treatment alone [1]	IC50 (TRPA1-KO A549 cells) [mM]	viability of TRPA1-KO A549 cells compared with AHs-treated WT cells (TRPA1-KO A549 cells)	viability of A549 cells compared with 0 μM AHs (A549 cells)	viability with HC-030031 pre-treatment compared with AHs treatment alone (A549 cells)	IC50 (A549 cells; [2]) [mM]	IC50 (A549 cells; [3]) [mM]	toxic effects (zebrafish embryos)
CCC(=O)Nc1ccc(Cl)c(Cl)c1 [Propanil, propanil]	significantly increased	significantly decreased calcium influx	2.56	significantly increased the viability	significantly decreased	significantly increased viability	0.831	2.29	
CCCOCCN(C(=O)CCl)c1c(CC)cccc1CC [Pretilachlor, pretilachlor]	significantly increased	significantly decreased calcium influx	3.67	significantly increased the viability	significantly decreased	significantly increased viability	2.33	4.46	endocrine disorder, cell apoptosis, and immunotoxicity
CCc1cccc(C)c1N(C(=O)CCl)C(C)COC (stereo not shown) [Metolachlor, metolachlor]	significantly increased	significantly decreased calcium influx	0.562	significantly increased the viability	significantly decreased	significantly increased viability	0.43	0.62	
